Assay results taken from US8796325B2, “Metronidazole esters for treating rosacea” (Galderma Research & Development, priority 2010, dated 2014).
Entries after “also recorded” stand apart in the source; their conditions may differ.

What was measured:
[1] = Stability evaluated on keratinocyte cultures; format: in vitro ADME; details: human, human neonatal keratinocyte cultures; keratinocyte cultures; 2 μM in medium CNT-057 with 0.1% pluronic acid, 0.1% DMSO; degradation kinetics over 24 hours; LC/MS/MS; read-out: half-life time (t1/2) (converted)
Protocol: (§1) The stability on keratinocyte cultures is evaluated using human neonatal keratinocytes (Cell'N Tech) cultured in a 75 cm^2 flask and detached at 90-100% of confluence with vegetable trypsin (trypLE GIBCO). The compound of formula (I) was tested at 2 μM in the medium CNT-057 (Cell'N Tech) supplemented with 0.1% pluronic acid in 24-well plates. The final DMSO concentration is 0.1%. Degradation kinetics are performed with a Tecan EVO robot over 24 hours. The samples taken are then assayed by LC/MS/MS (Micromass) in comparison with a calibration range of the test product, prepared under the same conditions as the samples (⅓ culture medium and ⅔ methanol). The chromatographic conditions are optimized for each product. An assay of the appearance of metronidazole is also performed using these same samples.

[2] = system: human neonatal keratinocytes; assay: Stability evaluated on keratinocyte cultures; format: in vitro ADME; details: over 24 hours
Protocol: as §1

| melting point [°C] | half-life at 2 μM [1] [min] | SMILES | stability / hydrolysis of the ester on keratinocyte cultures (in words) [2] |
| --- | --- | --- | --- |
| 122 to 124 | 480 | Cc1ncc([N+](=O)[O-])n1CCOC(=O)Cc1ccccc1Nc1c(Cl)cccc1Cl [compound of formula (I), 2-(2-methyl-5-nitroimidazol-1-yl)ethyl [2-(2,6-dichlorophenylamino)phenyl]acetate] | specifically cleaved in keratinocytes |
|  |  | Cc1ncc([N+](=O)[O-])n1CCOC(=O)c1cc(-c2ccc(F)cc2F)ccc1O [metronidazole ester with diflunisal] | stable in the presence of keratinocytes; also recorded: do not become hydrolysed |
|  |  | COc1ccc2c(c1)c(CC(=O)OCCn1c([N+](=O)[O-])cnc1C)c(C)n2C(=O)c1ccc(Cl)cc1 [metronidazole ester with indomethacin] | stable in the presence of keratinocytes; also recorded: do not become hydrolysed |
|  |  | Cc1ncc([N+](=O)[O-])n1CCOC(=O)C1CCn2c(C(=O)c3ccccc3)ccc21 (stereo not shown) [metronidazole ester with ketorolac] | stable in the presence of keratinocytes; also recorded: do not become hydrolysed |
|  |  | Cc1ncc([N+](=O)[O-])n1CCOC(=O)c1cccnc1Nc1cccc(C(F)(F)F)c1 [metronidazole ester with niflumic acid] | stable in the presence of keratinocytes; also recorded: do not become hydrolysed |
